According to patent US20240217952A1, “TREATMENT OF GRAFT-VERSUS-HOST DISEASE WITH INHIBITORS OF BET FAMILY BDII BROMODOMAIN” (POSEIDON INNOVATION 1, INC., priority 2022, published 2024):

Columns and labels:
GVHD = settings: allogeneic animals compared with allogeneic control recipients; FIG. 3; cited from earlier work
acute GVHD = settings: oral gavage three times weekly, versus vehicle; FIG. 4; cited from earlier work
[1] = test system: imiquimod-induced psoriasis; assay: IMQ induced psoriasis mouse model; format: in vivo
Procedure: Except for the control group, all other groups received a daily topical dose of 60 mg of 5% commercially available IMQ cream on the shaved back for 7 consecutive days. The same amount of Vaseline was applied to the same areas of the animals in the negative control group.
Vehicle and DF-6129 were dosed daily (po) for 8 days, from Day −1 to Day 7. Dosing time: 1 hour prior to IMQ application.
The Psoriasis Area and Severity Index (PASI) scoring system was used to evaluate the severity of skin inflammation of the mouse model. Erythema, scaling, and skin thickness was scored independently from 0-4 as (daily scoring) as below:
Animals were euthanized 4 h post last dosing on day 7 (3 h after applying with imiquimod cream). Whole Blood was collected via cardiac puncture from all group animals. Serum samples were separated by centrifugation at 4° C. at 8000 g for 5 minutes, total 70 samples. All serum samples were stored at −80° C. for IL-17 analysis.
Animals were euthanized 4 h post last dosing on day 7 (3 h after applying with imiquimod cream) and back skin was be collected. The skin tissues were divided into two parts. One half was flash frozen and stored at −80° C. for PCR analysis (IL-17A, IL-17F, IL-22 and IL-23), the other half was fixed in 10% formalin for HE staining and scoring.
All statistical analysis were conducted, and the level of significance was set at P<0.05. The group means and standard deviation were calculated for all measurement parameters as study designed. One-way ANOVA comparisons among the groups was performed with software SPSS 16.0.

[2] = test system: MCP-1 secretion from LPS-stimulated human PBMCs; assay: PBMC MCP-1 HTRF Assay; format: cell-based; settings: FIG. 2
Procedure: The cryopreserved PBMC cells were thawed in a 37° C. water bath immediately after taking out from liquid nitrogen storage. A sterile pipette was used to transfer the content to sterile […] centrifuge tube containing […] of complete growth medium (Gibico 1640) and centrifuge at 300×g for 10 min. Supernatant was discarded, and cell pellet was resuspended in 10 mL of complete growth media in a sterile 15 mL tube. The cells were rested for 1 h at 37° C. (1×10^6 cells/mL). The cells were spinned down at 300×g for 10 minutes after 1 h. Supernatant was discard, and cell pellet was resuspended in complete growth medium, the cells number and viability were measured by AO/PI staining. In a 384-well white plate, PBMCs at 25k cells/well (15 μl per well) were seeded with Gibico 1640 medium. The compound stock was serial diluted into 10 mM concentrations by 3-fold dilution. […]
For MCP-1 HTRF, 2.5 μl/well MCP-1 donor antibody and […] MCP-1 acceptor antibody were added into 384 well plate, following by centrifuging at 190×g for 1 min and incubating at room temperature for 2 h. The plate was read on the Envision.
The cryopreserved PBMC cells were thawed in a 37° C. water bath immediately after taking out from liquid nitrogen storage. […] Supernatant was discard, and cell pellet was resuspended in complete growth medium, the cells number and viability were measured by AO/PI staining. […]

[3] = test system: IL-17A, IL-17F and IL-21 T-cell dependent cytokine secretion; assay: Th17 Panel in Human PBMCs (anti-CD3 stimulation, Luminex); format: cell-based; settings: anti-CD3 coated plates, 48 hours post stimulation, supernatant, FIG. 1
Procedure: High binding plates were coated with anti-CD3 (Clone UCHT-1, 0.2 ug/well) or its isotype control mIgG1 (0.2 ug/well) and incubated overnight at 4° C. Cryopreserved human PBMCs were seeded into U-bottom 96-well plates (2.4×10^5 cells/well) with 228 ul per well of culture medium (RPMI 1640, 10% HI-FBS, 1% P/S, 2 mM L-glutamine). Cells were incubated at 37° C., 5% CO2 for 1 hour prior to the addition of test compounds. Test compounds were solubilized in DMSO and further diluted to 20× with cell culture medium. Test compounds were added to the PBMCs in volumes of 12 ul in triplicate and incubated at 1 hour at 37° C., 5% CO2.
After the 1 hour incubation, 200 ul of cells ([…]) treated with test compounds or controls were transferred to the prepared anti-CD3 coated plates and incubated at 48 hours at 37° C., 5% CO2. Consequently, the final concentrations of assay controls were 1 ug/mL anti-CD3 (agonist) or 1 ug/mL mIgG1 isotype control, and 0.1% DMSO (vehicle control). At the end of the incubation period, plates were centrifuged at 200×g for 10 minutes. Cell culture supernatants were collected and stored at −80° C. until needed for analysis. Cytokine levels in each sample were determine using Luminex methodology per the manufacturer's protocol using the Human Th17 Magnetic Bead Panel from Milipore Sigma (HTH17MAG-14K).
Human PBMCs were treated with compound I-1 (Example 1) or vehicle control and then subjected to T cell activation mediated by anti-CD3 coated plates. 48 hours-post stimulation, IL-17A, IL-17F and IL-21 supernatant levels were quantified.

[4] = test system: Graft vs. Host Disease (GvHD); assay: GvHD, combination with adoptive transfer of expanded Tregs; format: in vivo, mouse; settings: in combination with adoptive transfer of expanded Tregs; e.g. 3 mg/kg
Excerpt: It has been shown that BET inhibitors can be combined with Treg expansion therapy for treatment of diseases involving inflammatory response. Lethally irradiated (8.5 Gy) BALB/c mice received 5.5×10^6 TCD B6-CD45.1 BM cells and spleen cells from expanded (TrED) or unexpanded (TrUD) B6-FoxP3RFP donor mice adjusted to contain either […] or 1×10^6 total T cells (Copsel et al. 2019).

[5] = test system: Graft vs. Host Disease (GvHD); assay: GvHD in irradiated female BALB/c mice engrafted with WBCs from female C57BL/6 mice; format: in vivo, mouse
[6] = test system: Graft vs. Host Disease (GvHD); assay: GvHD, combination with CTLA4-Ig/Abatacept; format: in vivo, mouse; settings: in combination with CTLA4-Ig; e.g. 3 mg/kg
Excerpt: It has been shown that in vivo infusion of recombinant, soluble CTLA4 fused with Ig heavy chains, as a surrogate ligand used to block CD28/CTLA4 T-cell costimulation, could prevent efficient T-cell activation and thereby reduce graft-versus-host disease (GVHD). Lethally irradiated B10.BR recipients of major histocompatibility complex disparate C57BL/6 donor grafts received intraperitoneal injections CTLA4-Ig in various doses and schedules beginning on day −1 or day 0 of bone marrow transplantation (BMT) (see Blazer et al. 1994).

cGVHD = cGVHD models (LP/J→C57BL/6 sclerodermatous; C57BL/6→B10.BR); format: in vivo, mouse; settings: e.g. 3 mg/kg
Procedure: Compound I-2 is dosed at various doses, e.g., 3 mg/kg, and decreases incidence and/or […] onset of Graft vs. Host Disease (GvHD) in the LP/J-C57BL/6 model of sclerodermatous cGVHD and/or the C57BL/6→B10.BR cGVHD model that develops multiorgan system disease including bronchiolar obliterans (BO).

COc1cc2c(cc1-c1c(C)noc1C)ncc1[nH]c(=O)n([C@H](C)c3ccccn3)c12 [I-BET151]
GVHD severity (clinical score) (GVHD): significantly reduced | survival rates (GVHD): improved

Cc1noc(C)c1-c1cnc2c(-c3ccc(C(=O)O)cc3)cn([C@@H](C)c3ccccn3)c2c1 [PLX51107]
survival (acute GVHD): significantly improved

Cn1ccn(-c2ccc(-c3cc(F)cc(-c4cccc(N5CCN(C(C)(C)C)CC5)c4)c3O)cc2Cl)c1=O [Compound I-1, 1-(3″-(4-(tert-butyl)piperazin-1-yl)-3-chloro-5′-fluoro-2′-hydroxy-[1,1′:3′,1″- terphenyl]-4-yl)-3-methyl-1,3-dihydro-2H-imidazol-2-one]
mRNA levels of IL-17A from the back skin ([1]; 10 mg/kg, compared with vehicle treatment alone, FIG. 7A): significantly reduced | mRNA levels of IL-22 from the back skin ([1]; 10 mg/kg, compared with vehicle treatment alone, FIG. 7B): significantly reduced | mRNA levels of IL-23 from the back skin ([1]; 10 mg/kg, compared with vehicle treatment alone, FIG. 7C): significantly reduced | serum IL-17 levels ([1]; compared to vehicle treatment alone, ELISA, day 7, FIG. 6): significantly reduced | total psoriasis (PASI) score ([1]; daily dosing po, compared to vehicle treatment, FIG. 5A): significantly reduced | erythema (PASI) ([1]; daily dosing po, compared to vehicle treatment, FIG. 5B): significant decreases | scaling (PASI) ([1]; daily dosing po, compared to vehicle treatment, FIG. 5C): significant decreases | skin thickening (PASI) ([1]; daily dosing po, compared to vehicle treatment, FIG. 5D): significant decreases | MCP secretion from LPS-stimulated human PBMCs [2]: inhibited | IL21 T-cell dependent cytokine secretion [3]: inhibited | IL-17A T-cell dependent cytokine secretion [3]: inhibited | IL-17F T-cell dependent cytokine secretion [3]: inhibited

Cc1cc(-c2ccc(-n3ccn(C)c3=O)c(Cl)c2)c(O)c(-c2cccc(N3CCN(C(C)(C)C)CC3)c2)n1 [Compound I-2, 1-(4-(2-(3-(4-(tert-butyl)piperazin-1-yl)phenyl)-3-hydroxy-6-methylpyridin-4-yl)-2-chlorophenyl)-3-methyl-1,3-dihydro-2H-imidazol-2-one]
incidence and/or onset of GvHD [4]: decreases incidence and/or delays of onset | incidence and/or onset of GvHD ([5]; in combination with Ruxolitinib, compared to Ruxolitinib treatment alone, e.g. 3 mg/kg): decreases incidence and/or delays of onset | incidence and/or onset of GvHD ([5]; monotherapy, various doses e.g. 3 mg/kg): decreases incidence and/or delays onset | incidence and/or onset of GvHD [6]: decreases incidence and/or delays onset | incidence and/or onset of GvHD (cGVHD) (cGVHD; in combination with Ruxolitinib): decreases incidence and/or delays onset | incidence and/or onset of GvHD (cGVHD) (cGVHD; monotherapy): decreases incidence and/or delayes onset
